Consider 14 compounds from US8163693B2, “Urea-containing peptides as inhibitors of viral replication” (Achillion Pharmaceuticals, Inc., priority 2007, dated 2012).

Molecules are shown by their SMILES. Like-named read-outs stand apart in the source and are kept apart here. A value given as a limit tells only on which side of the number the result lay.

The subject of the test is Hepatitis C replicon in Huh-7 cells. In words: HCV replicon assay (inhibition of HCV replicon replication, NPT ELISA readout). Conditions: Hepatitis C virus, 72 h, Huh-7 HCV replicon-containing cells, three days incubation. It counts as cell-based. The procedure:
Compounds claimed herein are tested for the ability to inhibit viral replication of the Hepatitis C replicon in cultured cells in which the HCV replicon construct has been incorporated. The HCV replicon system was described by Bartenschlager, et. al (Science, 285, pp. 110-113 (1999)). The replicon system is predictive of in vivo anti-HCV activity; compounds that are active in humans uniformly evidence activity in the replicon assay.
In this assay HCV replicon containing cells are treated with different concentrations of the test compound to ascertain the ability of the test compound to suppress replication of the HCV replicon. As a positive control, HCV replicon-containing cells are treated with different concentrations of interferon alpha, a known inhibitor of HCV replication. The replicon assay system includes Neomycin Phosphotransferase (NPT) as a component of the replicon itself in order to detect the transcription of replicon gene products in the host cell. Cells in which the HCV replicon is actively replicating have high levels of NPT; the level of NPT is proportional to HCV replication. […] The NPT level of each sample is measured using a captured ELISA.
A protocol for testing compounds for the ability to inhibit viral replication of the Hepatitis C replicon cultured cells in which the replicon construct has been incorporated, follows.
The HCV replicon contains, 5′-3′, the HCV-IRES, the neomycin phosphotransferase (neo) gene, the IRES of encephalomyocarditis virus, which directs translation of HCV sequences NS3 to NS5B, and the 3′-NTR. The sequence of the HCV replicon has been deposited in GenBank (Accession no. AJ242652).
The replicon is transfected into Huh-7 cells using standard methods such as electroporation.
The equipment and materials include, but are not limited to, Huh-7 HCV replicon-containing cells, maintenance media (DMEM (Dulbecco's modified Eagle media) supplemented with 10% FBS, L-glutamine, non-essential amino acids, penicillin (100 units/ml), streptomycin (100 micrograms/ml), and 500 micrograms/ml of Geneticin (G418), screening media (DMEM supplemented with 10% FBS, L-glutamine, non-essential amino acids, penicillin (100 units/ml) and streptomycin (100 micrograms/ml)), 96 well tissue culture plates (flat bottom), 96 well plates (U bottom for drug dilution), Interferon alpha for positive control, fixation reagent (such as methanol: acetone), primary antibody (rabbit anti-NPTII), secondary antibody: Eu-N1 1, and enhancement solution.
The cells are then seeded onto 96-well plates at a density of 6000-7500 cells/100 microliters/ well (6-7.5×10^5 cells/10 ml/plate). The plates are then incubated at 37° C. in a 5% CO2 incubator.
HCV replicon-containing cells are rinsed with once PBS once; 2 mls of trypsin are then added. Cells are incubated at 37° C. in a 5% CO2 incubator for 3-5 minutes. 10 mls of complete medium is added to stop the reaction. Cells are blown gently, put into a 15 ml tube, and spun at 1200 rpm for four minutes. The trypsin/medium solution is removed and 5 mls of medium (500 ml DMEM (high glucose)) from BRL catalog #12430-054; 50 mls 10% FBS, 5% Geneticin G418 (50 mg/ml, BRL catalog #10131-035), 5 ml MEM non-essential amino acids (100× BRL #11140-050) and 5 ml pen-strep (BRL #15140-148) is added. The cells and media are mixed carefully
Cells are plated with screening medium (500 ml DMEM (BRL #21063-029), 50 ml FBS (BRL #10082-147) and 5 ml MEM non-essential amino acid (BRL #11140-050) at 6000-7500 fcells/100 μl/well of 96 well plate (6-7.5×10^5 cells/10 ml/plate). Plates are placed into 37° C. 5% CO2 incubator overnight.
The following morning, drugs (test compounds or interferon alpha) are diluted in 96 well U bottom plates with media or DMSO/media, depending on the final concentration chosen for screening. Generally for 6 concentrations of each test compounds ranging from 10 micromolar to 0.03 micromolar are applied. […]

Setting [1] is: read-out: EC50 in HCV replicon assay.
Setting [2] is: read-out: Activity (EC50 class in an HCV replicon assay).

Regarding `CCCC(NC(=O)N1C[C@@H](OC(=O)N2CCc3ccccc3C2)C[C@H]1C(=O)N[C@H](C(=O)N[C@H](C(=O)OC)C1CCCCC1)C(C)(C)C)C(=O)C(=O)NC1CC1` (stereo partly drawn) [Compound 11, (3S,5S)-5-((S)-1-((S)-1-Cyclohexyl-2-Methoxy-2-Oxoethylamino)-3,3-Dimethyl-1-Oxobutan-2-Ylcarbamoyl)-1-(1-(Cyclopropylamino)-1,2-Dioxohexan-3-Ylcarbamoyl)Pyrrolidin-3-yl 3,4-Dihydroisoquinoline-2(1H)-Carboxylate], the EC50 under setting [1] is at most 10 µM.

In the case of `CCCC(NC(=O)N1C[C@@H](OC(=O)N2CCc3ccccc3C2)C[C@H]1C(=O)N[C@H](C(=O)N[C@H](C(=O)NC)C1CCCCC1)C(C)(C)C)C(=O)C(=O)NC1CC1` (stereo partly drawn) [Compound 16, (3S,5S)-5-((S)-1-((S)-1-Cyclohexyl-2-(Methylamino)-2-Oxoethylamino)-3,3-Dimethyl-1-Oxobutan-2-Ylcarbamoyl)-1-(1-(Cyclopropylamino)-1,2-Dioxohexan-3-Ylcarbamoyl)Pyrrolidin-3-Yl 3,4Dihydroisoquinoline-2(1H)-Carboxylate], under setting [1], the EC50 is below 50 µM.

With `C=CC1CC1(NC(=O)N1C[C@@H](OC(=O)N2CCc3ccccc3C2)C[C@H]1C(=O)N[C@H](C(=O)N[C@H](C(=O)NC)C1CCCCC1)C(C)(C)C)C(=O)O` (stereo partly drawn) [Compound 33, 1-((2S,4S)-2-((S)-1-((S)-1-Cyclohexyl-2-(Methylamino)-2-Oxoethylamino)-3,3-Dimethyl-1-Oxobutan-2-Ylcarbamoyl)-4-(1,2,3,4-Tetrahydroisoquinoline-2-Carbonyloxy)Pyrrolidine-1-Carboxamido)-2-Vinylcyclopropanecarboxylic Acid], the EC50 under setting [1] is below 50 µM.

With `C=CC1CC1(NC(=O)N1C[C@@H](OC(=O)N2CCc3ccccc3C2)C[C@@H]1C(=O)N[C@H](C(=O)N[C@H](C(=O)NC)C(CC)CC)C(C)(C)C)C(=O)O` (stereo partly drawn) [Compound 38, 1-((2R,4S)-2-((S)-1-((S)-3-Ethyl-1-(Methylamino)-1-Oxopentan-2-Ylamino)-3,3-Dimethyl-1-Oxobutan-2-Ylcarbamoyl)-4-(1,2,3,4-Tetrahydroisoquinoline-2-Carbonyloxy)Pyrrolidine-1-Carboxamido)-2-Vinylcyclopropanecarboxylic Acid], the concentration for a half-maximal effect (EC50) under setting [1] was below 50 µM.

With `CNC(=O)[C@@H](NC(=O)[C@@H]1CCCCC/C=C\CC(C(=O)C(=O)NC2CC2)NC(=O)N2C[C@@H](OC(=O)N3CCc4ccccc4C3)C[C@@H]2C(=O)N1)C1CCCCC1` (some centres unmarked) [Compound 39], the EC50 under setting [1] was at most 10 µM.

With `CNC(=O)[C@@H](NC(=O)[C@@H]1CCCCC/C=C\C2CC2(C(=O)O)NC(=O)N2C[C@@H](OC(=O)N3CCc4ccccc4C3)C[C@@H]2C(=O)N1)C1CCCCC1` (some centres unmarked) [Compound 40], the 50% effective concentration (EC50) under setting [1] is at most 10 µM.

For `CCCC(NC(=O)N1C[C@@H](Oc2cc(-c3ccccc3)nc3cc(OC)ccc23)C[C@H]1C(=O)N[C@H](C(=O)N[C@H](C(=O)OC)C1CCCCC1)C(C)(C)C)C(=O)C(=O)NC1CC1` (some centres unmarked) [Compound 41], the EC50 under setting [2] is below 10 µM.

For the compound `C=CC1CC1(NC(=O)N1C[C@@H](Oc2cc(-c3ccccc3)nc3cc(OC)ccc23)C[C@H]1C(=O)NC(C(=O)N[C@H](C(=O)NC)C1CCCCC1)C(C)(C)C)C(=O)O` (some centres unmarked) [Compound 42], the EC50 under setting [2] is above 100 µM.

For the compound `CCCC(NC(=O)N1C[C@@H](OC(=O)N2CCc3ccccc3C2)C[C@H]1C(=O)N[C@H](C(=O)OC(C)(C)C)C(C)(C)C)C(=O)C(=O)NC1CC1` (some centres unmarked) [Compound 43], under setting [2], the EC50 lay within 10 to 100 µM.

As to `CCCC(NC(=O)N1C[C@@H](OC(=O)N2CCCCC2)C[C@H]1C(=O)N[C@H](C(=O)OC(C)(C)C)C(C)(C)C)C(=O)C(=O)NC1CC1` (some centres unmarked) [Compound 44], the EC50 under setting [2] is below 10 µM.

Take `C=CC1CC1(NC(=O)N1C[C@@H](OC(=O)N2CCCCC2)C[C@H]1C(=O)N[C@H](C(=O)OC(C)(C)C)C(C)(C)C)C(=O)OCC` (some centres unmarked) [Compound 45]: the EC50 under setting [2] is below 10 µM.

With `C=CC1CC1(NC(=O)N1C[C@@H](OC(=O)N2CCCCC2)C[C@H]1C(=O)N[C@H](C(=O)OC(C)(C)C)C(C)(C)C)C(=O)O` (some centres unmarked) [Compound 46], under setting [2], the 50% effective concentration (EC50) fell in the range of 10 to 100 µM.

For the compound `C=CC1CC1(NC(=O)N1C[C@@H](OC(=O)N2CCCCC2)C[C@H]1C(=O)N[C@H](C(=O)OC(C)(C)C)C(C)(C)C)C(=O)NS(=O)(=O)C1CC1` (some centres unmarked) [Compound 47], the concentration giving a half-maximal response (EC50) under setting [2] was below 10 µM.

Turning to `C=CC1CC1(NC(=O)N1C[C@@H](Oc2cc(-c3ccccc3)nc3cc(OC)ccc23)C[C@H]1C(=O)N[C@H](C(=O)N[C@H](C(=O)NC)C1CCCCC1)C(C)(C)C)C(=O)NS(=O)(=O)C1CC1` (some centres unmarked) [Compound 48], the 50% effective concentration (EC50) under setting [2] was below 10 µM.
